Experimental findings from the Kinase Knowledgebase extract (Sharma et al. 2016) are described below.

The experiment deals with MAPK14 (human) (UniProt Q16539). The experiment can be described thus: Inhibition of MAPK14 Kinase Activity.
Chain of MAPK14 (human) (Q16539 whole entry, looked up): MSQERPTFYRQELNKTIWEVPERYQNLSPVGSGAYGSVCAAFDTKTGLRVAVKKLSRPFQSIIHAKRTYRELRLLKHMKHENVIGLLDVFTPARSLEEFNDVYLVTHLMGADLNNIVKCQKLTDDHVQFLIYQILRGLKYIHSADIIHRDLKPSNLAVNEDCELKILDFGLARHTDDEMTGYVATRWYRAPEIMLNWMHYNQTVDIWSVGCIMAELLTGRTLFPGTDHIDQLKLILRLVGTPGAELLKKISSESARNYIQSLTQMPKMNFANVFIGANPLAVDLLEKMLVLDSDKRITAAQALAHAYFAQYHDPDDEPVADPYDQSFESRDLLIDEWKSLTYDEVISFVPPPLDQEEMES
By IC50 is commonly meant the midpoint of a concentration-inhibition curve. A lower IC50 goes with greater potency in that assay. `Cc1ccc(C(=O)NC2CC2)cc1-n1ccnc(N[C@H](CC(=O)N2CCN(C)CC2)c2ccccc2)c1=O` yielded a half-maximal inhibitory concentration (IC50) of 25.1 nM. In turn, `CNCCCOc1ccccc1[C@@H]1CCCN1c1nccn(-c2cc(C(=O)NC3CC3)ccc2C)c1=O` had an IC50 of 25.1 nM. The value for `Cc1ccc(C(=O)NC2CC2)cc1-n1ccnc(NCc2cccc(CNC(=O)OC(C)(C)C)c2)c1=O` was 31.6 nM.

On to `CCC(C)NC(=O)c1ccc(C)c(-n2ccnc(NCc3ccc(N4CCN(C)CC4)cc3)c2=O)c1` (centres undefined), for which the IC50 is 1000 nM. The value for `Cc1ccc(C(=O)NC2CC2)cc1-n1ccnc(N[C@@H](c2ccccc2)[C@@H](C)CN2CCC(C(N)=O)CC2)c1=O` was 0.631 nM. The value for `Cc1ccc(C(=O)NC2CC2)cc1-n1ccnc(N[C@@H](c2ccccc2)[C@@H](C)CN2CCCN(C)CC2)c1=O` was 1 nM; that for `CCN(CC)CCOc1ccccc1C(C)(C)Nc1nccn(-c2cc(C(=O)NC3CC3)ccc2C)c1=O` was 0.631 nM. The same measure for `Cc1ccc(C(=O)NC2CC2)cc1-n1ccnc(NCC2Cc3ccccc3CN2)c1=O` (centres undefined): 126 nM; for `CCC(CC)(Nc1nccn(-c2cc(C(=O)NC3CC3)ccc2C)c1=O)c1ccccc1OCCNC`: 0.398 nM; for `Cc1ccc(C(=O)NC2CC2)cc1-n1ccnc(NC(CC(=O)NC2CC2)c2ccccc2)c1=O` (centres undefined): 31.6 nM. Regarding `Cc1ccc(C(=O)NC2CC2)cc1-n1ccnc(NCc2ccc(CNC(=O)OC(C)(C)C)cc2)c1=O`, the IC50 is 501 nM. The same measure for `Cc1ccc(C(=O)NC2CC2)cc1-n1ccnc(N[C@H](CC(=O)OC(C)(C)C)c2ccccc2)c1=O`: 20 nM; for `Cc1ccc(C(=O)NC2CC2)cc1-n1ccnc(NC(c2ccccc2)C2CCN(C)CC2)c1=O` (centres undefined): 251 nM.

For the molecule `CNCCCOc1ccccc1[C@H]1CCCN1c1nccn(-c2cc(C(=O)NC3CC3)ccc2C)c1=O`, the IC50 came out at 1.26 nM.
